target: T1, recombinant human GR (Homo sapiens, UniProt P04150); test: Human Glucocorticoid Receptor (GR) Assay (fluorescence polarization, Panvera/Invitrogen kit); format: binding; details: fluorescence polarization; GS Red tracer; 2 hours at room temperature; 100% control 10 μM Dexamethasone; read-out: Inhibition of GR binding, IC50
T1 construct: purchased Panvera/Invitrogen P2812 (kit P2893)
T1 sequence (P04150 1-777): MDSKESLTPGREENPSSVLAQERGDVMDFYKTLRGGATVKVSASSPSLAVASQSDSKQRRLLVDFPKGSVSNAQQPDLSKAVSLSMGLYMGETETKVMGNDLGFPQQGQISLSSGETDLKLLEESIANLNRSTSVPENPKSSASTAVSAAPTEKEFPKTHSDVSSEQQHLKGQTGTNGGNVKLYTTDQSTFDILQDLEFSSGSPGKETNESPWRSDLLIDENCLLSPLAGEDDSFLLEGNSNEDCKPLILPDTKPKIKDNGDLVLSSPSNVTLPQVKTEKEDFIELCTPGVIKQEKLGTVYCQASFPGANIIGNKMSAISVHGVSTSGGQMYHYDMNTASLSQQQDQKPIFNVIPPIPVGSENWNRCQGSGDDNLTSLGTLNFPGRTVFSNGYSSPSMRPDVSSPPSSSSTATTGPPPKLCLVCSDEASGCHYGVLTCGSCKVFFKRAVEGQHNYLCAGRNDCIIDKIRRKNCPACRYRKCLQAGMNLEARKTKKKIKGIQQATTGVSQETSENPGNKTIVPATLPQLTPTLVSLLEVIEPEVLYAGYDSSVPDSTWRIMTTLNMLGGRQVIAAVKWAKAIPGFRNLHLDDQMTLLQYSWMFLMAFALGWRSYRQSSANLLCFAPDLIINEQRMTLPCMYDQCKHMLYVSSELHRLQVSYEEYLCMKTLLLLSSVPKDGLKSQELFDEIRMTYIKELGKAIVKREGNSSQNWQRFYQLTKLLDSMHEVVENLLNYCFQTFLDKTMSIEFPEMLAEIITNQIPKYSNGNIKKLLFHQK
In short: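 Fluorescence polarization competition with recombinant GR and GS Red fluorescent ligand plus stabilizing peptide and DTT in potassium phosphate/sodium molybdate/EDTA buffer with DMSO. Incubated 2 hours at room temperature in the dark; 0% control DMSO, 100% control 10 μM dexamethasone.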

Structure (SMILES)	IC50 [nM]
C[C@]12Cc3cnn(-c4ccc(F)cc4)c3C=C1CC[C@@H]1[C@@H]2[C@@H](O)C[C@@]2(C)[C@H]1CC[C@]2(OC(=O)c1ccno1)C(=O)SCCO [Example 61, (1R,3aS,3bS,10aR,10bS,11S,12aS)-7-(4-Fluorophenyl)-11-hydroxy-1-{[(2-hydroxy-ethyl)thio]carbonyl}-10a,12a-dimethyl-1,2,3,3a,3b,4,5,7,10,10a,10b. 1,12,12a-tetradecahydrocyclopenta[5,6]naphtho[1,2-f]indazol-1-yl isoxazole-5-carboxylate]	8.3
COCCC(=O)O[C@]1(C(=O)SCC#N)CC[C@H]2[C@@H]3CCC4=Cc5c(cnn5-c5ccc(F)cc5)C[C@]4(C)[C@H]3[C@@H](O)C[C@@]21C [Example 62, (1R,3aS,3bS,10aR,10bS,11S,12aS)-1-{[(Cyanomethyl)thio]carbonyl}-7-(4-fluorophenyl)-11-hydroxy-10a,12a-dimethyl-1,2,3,3a,3b,4,5,7,10,10a,10b,11,12,12a-tetradecahydrocyclopenta[5,6]naphtho[1,2-f]indazol-1-yl 3-methoxypropanoate]	2.2
COCCC(=O)O[C@]1(C(=O)SCF)CC[C@H]2[C@@H]3CCC4=Cc5c(cnn5-c5ccc(F)cc5)C[C@]4(C)[C@H]3[C@@H](O)C[C@@]21C [Example 63, (1R,3aS,3bS,10aR,10bS,11S,12aS)-1-{[(Fluoromethyl)thio]carbonyl}-7-(4-fluorophenyl)-11-hydroxy-10a,12a-dimethyl-1,2,3,3a,3b,4,5,7,10,10a,10b,11,12,12a-tetradecahydropcyclopenta[5,6]naphtho[1,2-f]indazol-1-yl 3-methoxypropanoate]	3.3
CSC(=O)[C@@]1(OC(=O)c2ccco2)CC[C@H]2[C@@H]3CCC4=Cc5c(cnn5-c5ccc(F)cc5)C[C@]4(C)[C@H]3[C@@H](O)C[C@@]21C [Example 64, (1R,3aS,3bS,10aR,10bS,11S,12aS)-7-(4-Fluorophenyl)-11-hydroxy-10a,12a-dimethyl-1-[(methylthio)carbonyl]-1,2,3,3a,3b,4,5,7,10,10a,10b,11,12,12a-tetradecahydropcyclopenta[5,6]naphtho[1,2-f]indazol-1-yl furan-2-carboxylate]	5.8
C[C@]12Cc3cnn(-c4ccc(F)cc4)c3C=C1CC[C@@H]1[C@@H]2[C@@H](O)C[C@@]2(C)[C@H]1CC[C@]2(OC(=O)c1ccco1)C(=O)OCC#N [Example 65, Cyanomethyl(1R,3aS,3bS,10aR,10bS,11S,12aS)-7-(4-fluorophenyl)-1-[(furan-2-ylcarbonyl)oxy]-11-hydroxy-10a,12a-dimethyl-1,2,3,3a,3b,4,5,7,10,10a,10b,11,12,12a-tetradecahydrocyclopenta[5,6]naphtho[1,2-f]indazole-1-carboxylate]	2.6
COC(=O)[C@@]1(OC(=O)c2ccco2)CC[C@H]2[C@@H]3CCC4=Cc5c(cnn5-c5ccc(F)cc5)C[C@]4(C)[C@H]3[C@@H](O)C[C@@]21C [Example 66, Methyl (1R,3aS,3bS,10aR,10bS,11S,12aS)-7-(4-fluorophenyl)-1-[(furan-2-yl-carbonyl)oxy]-11-hydroxy-10a,12a-dimethyl-1,2,3,3a,3b,4,5,7,10,10a,10b,11,12,12a-tetradecahydrocyclopenta[5,6]naphtho[1,2-f]indazole-1-carboxylate]	3.3
CCOC(=O)O[C@]1(C(=O)SCC#N)CC[C@H]2[C@@H]3CCC4=Cc5c(cnn5-c5ccc(F)cc5)C[C@]4(C)[C@H]3[C@@H](O)C[C@@]21C [Example 67, S-(Cyanomethyl)(1R,3aS,3bS,10aR,10bS,11S,12aS)-1-[(ethoxycarbonyl)oxy]-7-(4-fluorophenyl)-11-hydroxy-10a,12a-dimethyl-1,2,3,3a,3b,4,5,7,10,10a,10b,11,12,12a-tetradecahydrocyclopenta[5,6]naphtho[1,2-f]indazole-1-carbothioate]	38
CC(C)OC(=O)O[C@]1(C(=O)SCC#N)CC[C@H]2[C@@H]3CCC4=Cc5c(cnn5-c5ccc(F)cc5)C[C@]4(C)[C@H]3[C@@H](O)C[C@@]21C [Example 68, S-(Cyanomethyl)(1R,3aS,3bS,10aR,10bS,11S,12aS)-7-(4-fluorophenyl)-11-hydroxy-10a,12a-dimethyl-1-{[(1-methylethoxy)carbonyl]oxy}-1,2,3,3a,3b,4,5,7,10,10a,10b,11,12,12a-tetradecahydrocyclopenta[5,6]naphtho[1,2-f]indazole-1-carbothioate]	12
CNC(=O)[C@@]1(OC(=O)c2ccco2)CC[C@H]2[C@@H]3CCC4=Cc5c(cnn5-c5ccc(F)cc5)C[C@]4(C)[C@H]3[C@@H](O)C[C@@]21C [Example 69, (1R,3aS,3bS,10aR,10bS,11S,12aS)-7-(4-Fluorophenyl)-11-hydroxy-10a,12a-dimethyl-1-(methylcarbamoyl)-1,2,3,3a,3b,4,5,7,10,10a,10b,11,12,12a-tetradecahydropcyclopenta[5,6]naphtho[1,2-f]indazol-1-yl furan-2-carboxylate]	3
CNC(=O)[C@@]1(O)CC[C@H]2[C@@H]3CCC4=Cc5c(cnn5-c5ccc(F)cc5)C[C@]4(C)[C@H]3[C@@H](O)C[C@@]21C [Example 70, (1R,3aS,3bS,10aR,10bS,11S,12aS)-7-(4-Fluorophenyl)-1,11-dihydroxy-N,10a,12a-trimethyl-1,2,3,3a,3b,4,5,7,10,10a,10b,11,12,12a-tetradecahydrocyclopenta[5,6]naphtho[1,2-f]indazole-1-carboxamide]	3.8
C[C@]12Cc3cnn(-c4cccc(Br)c4)c3C=C1CC[C@@H]1[C@@H]2[C@@H](O)C[C@@]2(C)[C@H]1CC[C@]2(OC(=O)c1ccco1)C(=O)SCF [Example 71, (1R,3aS,10aR,10bS,11S,12aS)-7-(3-Bromophenyl)-1-{[(fluoromethyl)thio]carbonyl}-11-hydroxy-10a,12a-dimethyl-1,2,3,3a,3b,4,5,7,10,10a,10b,11,12,12a-tetradecaphydrocyclopenta[5,6]naphtho[1,2-f]indazol-1-yl furan-2-carboxylate]	13
C=Cc1cccc(-n2ncc3c2C=C2CC[C@@H]4[C@H]([C@@H](O)C[C@@]5(C)[C@H]4CC[C@]5(OC(=O)c4ccco4)C(=O)SCF)[C@@]2(C)C3)c1 [Example 72, (1R,10aR,11S,12aS)-7-(3-Ethenylphenyl)-1-{[(fluoromethyl)thio]carbonyl}-11-hydroxy-10a,12a-dimethyl-1,2,3,3a,3b,4,5,7,10a,10b,11,12,12a-tetradecahydrocyclopenta[5,6]naphtho[1,2-f]indazol-1-yl furan-2-carboxylate]	17
COCc1cc(-n2ncc3c2C=C2CC[C@@H]4[C@H]([C@@H](O)C[C@@]5(C)[C@H]4CC[C@]5(OC(=O)c4ccco4)C(=O)SCC#N)[C@@]2(C)C3)ccc1F [Example 73, (1R,3aS,3bS,10aR,10bS,11S,12aS)-1-{[(Cyanomethyl)thio]carbonyl}-7-[4-fluoro-3-(methoxymethyl)phenyl]-11-hydroxy-10a,12a-dimethyl-1,2,3,3a,3b,4,5,7,10,10a,10b,11,12,12a-tetradecahydrocyclopenta[5,6]naphtho[1,2-f]indazol-1-yl furan-2-carboxylate]	6.4
COCc1cc(-n2ncc3c2C=C2CC[C@@H]4[C@H]([C@@H](O)C[C@@]5(C)[C@H]4CC[C@]5(OC(=O)c4ccco4)C(=O)SCF)[C@@]2(C)C3)ccc1F [Example 74, (1R,3aS,3bS,10aR,10bS,11S,12aS)-7-[4-Fluoro-3-(methoxymethyl)phenyl]-1-{[(fluoromethyl)thio]carbonyl}-11-hydroxy-10a,12a-dimethyl-1,2,3,3a,3b,4,5,7,10,10a,10b,11,12,12a-tetradecahydrocyclopenta[5,6]naphtho[1,2-f]indazol-1-yl furan-2-carboxylate]	22
C[C@]12Cc3cnn(-c4ccc(F)c(CF)c4)c3C=C1CC[C@@H]1[C@@H]2[C@@H](O)C[C@@]2(C)[C@H]1CC[C@]2(OC(=O)c1ccco1)C(=O)SCC#N [Example 75, (1R,3aS,3bS,10aR,10bS,11S,12aS)-1-{[(Cyanomethyl)thio]carbonyl}-7-[4-fluoro-3-(fluoromethyl)phenyl]-11-hydroxy-10a,12a-dimethyl-1,2,3,3a,3 b,4,5,7,10,10a,10b,11,12,12a-tetradecahydrocyclopenta[5,6]naphtho[1,2-f]indazol-1-yl furan-2-carboxylate]	7.2

Reference: US8163724B2, “Glucocorticosteroids, processes for their preparation, pharmaceutical compositions containing them and their use in therapy” (AstraZeneca AB, priority 2007, dated 2012)
